From patent US20240390508A1, “HUMAN TRANSFERRIN RECEPTOR BINDING PEPTIDE-DRUG CONJUGATE” (priority 2021, published 2024) come the findings set out here.

This test concerns the target transferrin receptor (hTfR) (Homo sapiens, UniProt P02786). As to the kind of experiment: Intermolecular interaction evaluation test between transferrin receptor (hTfR) and peptide-nucleic acid conjugate using surface plasmon resonance (SPR). The test is classed as binding. As to the method:
Intermolecular interaction evaluation test between transferrin receptor (hTfR) and peptide using surface plasmon resonance (SPR)
The various synthesized peptide-nucleic acid conjugates were tested for intermolecular interaction by surface plasmon resonance (SPR) of the peptide-nucleic acid conjugate with transferrin receptor (hTfR) using the method shown below. The specific test method is shown below.
NTA sensor chip (Global Life Science Technologies Japan Co., Ltd.) was inserted into Biacore T200 (Global Life Science Technologies Japan Co., Ltd.), prime operation was performed three times with running buffer: 10 mM HEPES pH 8.0 (Nacalai Tesque Co., Ltd.), 150 mM NaCl (Nacalai Tesque Co., Ltd.), 0.05% Tween 20 (Nacalai Tesque Co., Ltd.), 0.1% BSA (SIGMA-ALDRICH), and 1.0% DMSO (FUJIFILM Wako Pure Chemical Corporation), and equilibrated at a flow rate of 30 μL/min. 350 mM EDTA solution was reacted for 60 seconds at a flow rate of 10 μL/min, 0.5 mM NiCl2 solution (Kishida Chemical) was reacted for 60 seconds at a flow rate of 10 μL/min, and the NTA sensor chip was washed with 3 mM EDTA solution (Nacalai Tesque Co., Ltd.) for 60 seconds at a flow rate of 10 μL/min. After mixing 50 μL each of […] EDC solution (Global Life Science Technologies Japan Co., Ltd.) and […] NHS solution (Global Life Science Technologies Japan Co., Ltd.), the mixture was reacted for 420 seconds at a flow rate of 10 μL/min. 150 μL of a 0.5 μM hTfR solution was prepared by diluting with a running buffer and reacted for 300 seconds at a flow rate of 10 μL/min to immobilize hTfR on the NTA sensor chip. After immobilization, capping was performed by reacting with a 1.0 M ethanolamine aqueous solution (Global Life Science Technologies Japan Co., Ltd.) at a flow rate of 10 μL/min for 420 seconds. A peptide-nucleic acid conjugate solution adjusted to 10 mM in DMSO solution was diluted with running buffer to a final concentration of 10 μM peptide-nucleic acid conjugate solution, and 100 nM, 50 nM, 25 nM, 10 nM, 5 nM peptide-nucleic acid conjugate solutions were prepared. Using the aforementioned samples, the kinetics of the peptide against hTfR was obtained by SPR measurement.
The kinetics evaluation model was Single Cycle Kinetics, and curve fitting was performed using Biacore T200 Evaluation Software Version 3.0 (Global Life Science Technologies Japan Co., Ltd.). The obtained sensorgram was subjected to curve fitting using the least squares method, and the binding of the peptide-nucleic acid conjugate to hTfR was evaluated by determining the KD value.

Chain of transferrin receptor (hTfR) (P02786 whole entry): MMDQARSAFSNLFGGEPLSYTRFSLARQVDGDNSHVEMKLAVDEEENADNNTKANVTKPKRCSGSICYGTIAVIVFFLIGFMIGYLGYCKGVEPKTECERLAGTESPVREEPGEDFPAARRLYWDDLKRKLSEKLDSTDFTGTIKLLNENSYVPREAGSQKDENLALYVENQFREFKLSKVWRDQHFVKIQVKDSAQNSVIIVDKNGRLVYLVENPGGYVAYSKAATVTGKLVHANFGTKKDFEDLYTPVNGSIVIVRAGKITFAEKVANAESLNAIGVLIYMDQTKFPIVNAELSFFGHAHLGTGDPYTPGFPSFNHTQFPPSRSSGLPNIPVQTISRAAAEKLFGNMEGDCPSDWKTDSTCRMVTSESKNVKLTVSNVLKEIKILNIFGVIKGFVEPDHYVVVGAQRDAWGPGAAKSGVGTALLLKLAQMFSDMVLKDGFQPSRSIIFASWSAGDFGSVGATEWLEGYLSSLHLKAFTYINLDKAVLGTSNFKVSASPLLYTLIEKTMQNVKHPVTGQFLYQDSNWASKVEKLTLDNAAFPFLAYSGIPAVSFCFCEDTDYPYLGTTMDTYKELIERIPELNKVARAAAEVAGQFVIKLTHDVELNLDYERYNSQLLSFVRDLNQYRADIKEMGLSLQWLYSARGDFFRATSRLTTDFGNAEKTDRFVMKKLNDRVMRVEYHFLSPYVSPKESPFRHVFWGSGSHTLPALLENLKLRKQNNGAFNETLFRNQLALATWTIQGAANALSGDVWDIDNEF

In the case of `CC[C@H](C)[C@@H]1NC(=O)[C@H](Cc2ccc(O)cc2)NC(=O)[C@H](Cc2ccc(O)cc2)NC(=O)[C@H](CC(N)=O)NC(=O)[C@H](Cc2c[nH]c3ccccc23)NC(=O)[C@H](C(C)C)NC(=O)[C@H](Cc2ccccc2)N(C)C(=O)[C@H](C(C)C)NC(=O)[C@H](C)NC(=O)CSC[C@@H](C(=O)NCC(=O)N[C@@H](CCCCn2cc(CCC(=O)NCCOCCOCC(=O)N[C@@H](CCCCN)C(=O)N[C@@H](CCCCN)C(=O)N[C@@H](CCCCN)C(=O)NCC(=O)N3C[C@@H](COP(=O)(N(C)C)N4C[C@@H](COP(=O)(N(C)C)N5C[C@@H](COP(=O)(N(C)C)N6C[C@@H](COP(=O)(N(C)C)N7C[C@@H](COP(=O)(N(C)C)N8C[C@@H](COP(=O)(N(C)C)N9C[C@@H](COP(=O)(N(C)C)N%10C[C@@H](COP(=O)(N(C)C)N%11C[C@@H](COP(=O)(N(C)C)N%12C[C@@H](COP(=O)(N(C)C)N%13C[C@@H](COP(=O)(N(C)C)N%14C[C@@H](COP(=O)(N(C)C)N%15C[C@@H](COP(=O)(N(C)C)N%16C[C@@H](COP(=O)(N(C)C)N%17C[C@@H](COP(=O)(N(C)C)N%18C[C@@H](COP(=O)(N(C)C)N%19C[C@@H](COP(=O)(N(C)C)N%20C[C@@H](COP(=O)(N(C)C)N%21C[C@@H](COP(=O)(N(C)C)N%22C[C@@H](COP(=O)(N(C)C)N%23C[C@@H](COP(=O)(N(C)C)N%24C[C@@H](COP(=O)(N(C)C)N%25C[C@@H](COP(=O)(N(C)C)N%26C[C@@H](COP(=O)(N(C)C)N%27C[C@@H](COP(=O)(N(C)C)N(C)CC(N)=O)O[C@@H](n%28cnc%29c(=O)[nH]c(N)nc%29%28)C%27)O[C@@H](n%27cnc%28c(=O)[nH]c(N)nc%28%27)C%26)O[C@@H](n%26ccc(N)nc%26=O)C%25)O[C@@H](n%25ccc(N)nc%25=O)C%24)O[C@@H](n%24cnc%25c(N)ncnc%25%24)C%23)O[C@@H](n%23cnc%24c(N)ncnc%24%23)C%22)O[C@@H](n%22cnc%23c(N)ncnc%23%22)C%21)O[C@@H](n%21ccc(N)nc%21=O)C%20)O[C@@H](n%20ccc(N)nc%20=O)C%19)O[C@@H](n%19cc(C)c(=O)[nH]c%19=O)C%18)O[C@@H](n%18ccc(N)nc%18=O)C%17)O[C@@H](n%17cnc%18c(=O)[nH]c(N)nc%18%17)C%16)O[C@@H](n%16cnc%17c(=O)[nH]c(N)nc%17%16)C%15)O[C@@H](n%15ccc(N)nc%15=O)C%14)O[C@@H](n%14cc(C)c(=O)[nH]c%14=O)C%13)O[C@@H](n%13cc(C)c(=O)[nH]c%13=O)C%12)O[C@@H](n%12cnc%13c(N)ncnc%13%12)C%11)O[C@@H](n%11ccc(N)nc%11=O)C%10)O[C@@H](n%10ccc(N)nc%10=O)C9)O[C@@H](n9cc(C)c(=O)[nH]c9=O)C8)O[C@@H](n8cnc9c(=O)[nH]c(N)nc98)C7)O[C@@H](n7cnc8c(N)ncnc87)C6)O[C@@H](n6cnc7c(N)ncnc76)C5)O[C@@H](n5cnc6c(N)ncnc65)C4)O[C@@H](n4cc(C)c(=O)[nH]c4=O)C3)nn2)C(N)=O)NC(=O)[C@H](Cc2ccc(O)cc2)N(C)C(=O)[C@H](Cc2ccc(O)cc2)NC(=O)[C@H](CCCNC(=N)N)NC(=O)[C@H](CCCNC(=N)N)NC(=O)[C@H]([C@@H](C)CC)NC1=O` (stereo partly shown) [Example 61], the dissociation constant (Kd) – broadly, the constant that tells how readily two partners part at equilibrium – was less than 100 nM.
